This note sets out measurements from PubChem BioAssay (NCI).

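Where inhibition never reached the appropriate level, the endpoint shown equals the highest concentration tested. Otherwise, values were interpolated linearly from a five-concentration, 48-hour dose response in 96-well plates. The concentration for 50% growth inhibition is given as GI50. TGI: concentration producing complete growth inhibition.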

Test systems include SK-MEL-2 melanoma; NCI-H460 lung; HOP-92 NSCLC; HT29 colon; A498 renal; IGROV1 ovarian; MDA-MB-435; RPMI-8226 leukemia.
Holding throughout (assay): growth of human tumour cells (NCI), 48 h

As to `CS(=O)(=O)c1ccc(C(F)(F)F)cc1NC(=O)Nc1cnc(Oc2ccc(-c3cc(Cl)cnc3N)cc2)nc1`, the GI50 was 2.34 µM in the experiment on SK-MEL-2 melanoma; 2.07 µM in the experiment with NCI-H460 lung; 1.75 µM with HOP-92 NSCLC; 2.24 µM with HT29 colon; 1.78 µM in the experiment with A498 renal; 1.73 µM with IGROV1 ovarian. Besides, the results for the GI50 in the experiment on MDA-MB-435 and with RPMI-8226 leukemia were 2.23 µM and 2.33 µM, respectively. Also, the TGI with SK-MEL-2 melanoma was 5.03 µM; with NCI-H460 lung it was 4.42 µM; with HOP-92 NSCLC, 5.12 µM; in the experiment with HT29 colon it was 7.52 µM; in the experiment with A498 renal it was 5.09 µM; in the experiment with IGROV1 ovarian, 6.04 µM. For the same molecule, the TGI in the experiment with MDA-MB-435 amounted to 5.79 µM; with RPMI-8226 leukemia it was 6.53 µM.
With `CCN(C)S(=O)(=O)Nc1cccc(Nc2ncnc3cc(NC(=O)CCl)ccc23)c1Cl`, the GI50 in the experiment on SK-MEL-2 melanoma is 4.36 µM; with NCI-H460 lung, 3.57 µM; in the experiment on HOP-92 NSCLC, 3.4 µM; in the experiment on HT29 colon, 1.33 µM; in the experiment with A498 renal it was 5.02 µM; in the experiment with IGROV1 ovarian, 3.5 µM. For the same molecule, the figures for the GI50 in the experiment with MDA-MB-435 and in the experiment on RPMI-8226 leukemia were 1.92 µM and 1.21 µM, respectively. For the same molecule, the TGI in the experiment with SK-MEL-2 melanoma was 14.3 µM; in the experiment on NCI-H460 lung it was 8.6 µM; in the experiment on HOP-92 NSCLC it was 7.95 µM; in the experiment on HT29 colon, 4.83 µM; in the experiment on A498 renal, 24.8 µM; in the experiment on IGROV1 ovarian, 8.62 µM. Besides, the TGI amounted to 6.44 µM in the experiment with MDA-MB-435 and 5.42 µM in the experiment on RPMI-8226 leukemia.
Take `N#Cc1c(NC(=O)CCC(=O)O)ccc2ccccc12`: the TGI with SK-MEL-2 melanoma, in the experiment on NCI-H460 lung, in the experiment on HOP-92 NSCLC, in the experiment with HT29 colon, with A498 renal and with IGROV1 ovarian was over 100 µM throughout. For the same molecule, the TGI with MDA-MB-435 and in the experiment with RPMI-8226 leukemia was over 100 µM in each case.
Regarding `N#Cc1ccc(-n2cnc(NC(=O)[C@H]3CCN(C#N)C3)c2)cc1`, the GI50 is 0.935 µM with SK-MEL-2 melanoma; 2.35 µM in the experiment on NCI-H460 lung; 1.92 µM in the experiment on HOP-92 NSCLC; 1.29 µM in the experiment on HT29 colon; 2.03 µM with A498 renal; 2.01 µM with IGROV1 ovarian. Moreover, the GI50 is 0.234 µM in the experiment on MDA-MB-435 and 1.71 µM with RPMI-8226 leukemia. For the same molecule, the TGI in the experiment with SK-MEL-2 melanoma was 4.09 µM; in the experiment with NCI-H460 lung, over 34.7 µM; in the experiment with HOP-92 NSCLC, 6.98 µM; in the experiment on HT29 colon it was 7.3 µM; with A498 renal, 4.76 µM; with IGROV1 ovarian it was over 100 µM. Also, the TGI was 18.4 µM with MDA-MB-435 and 7.46 µM with RPMI-8226 leukemia.
For the molecule `CC(=O)N1c2ccccc2C23CCN4CC5=CCOC(O)C(C5CC42)C13` (configuration not stated), the TGI in the experiment on SK-MEL-2 melanoma, with NCI-H460 lung, with HOP-92 NSCLC, in the experiment on HT29 colon, with A498 renal and in the experiment on IGROV1 ovarian was over 100 µM in each case. Further, the TGI in the experiment on MDA-MB-435 and in the experiment with RPMI-8226 leukemia was over 100 µM in each case.
Turning to `Cc1ccnc2c1NC(=O)c1cccnc1N2C1CC1`, the GI50 in the experiment on SK-MEL-2 melanoma, in the experiment with NCI-H460 lung, with HOP-92 NSCLC, with HT29 colon, with A498 renal and in the experiment with IGROV1 ovarian was over 100 µM in each case. The GI50 in the experiment with MDA-MB-435 and in the experiment on RPMI-8226 leukemia was over 100 µM in each case. In addition, the TGI in the experiment on SK-MEL-2 melanoma, with NCI-H460 lung, in the experiment with HOP-92 NSCLC, in the experiment with HT29 colon, with A498 renal and with IGROV1 ovarian was over 100 µM throughout. The TGI in the experiment with MDA-MB-435 and in the experiment with RPMI-8226 leukemia was over 100 µM each time.
As to `CCOC(=O)C(=Cc1ccc(Br)cc1)C(=O)OCC`, the GI50 in the experiment with SK-MEL-2 melanoma is 2.02 µM; in the experiment with NCI-H460 lung, 2.37 µM; in the experiment on HOP-92 NSCLC, 1.45 µM; in the experiment on HT29 colon it was 2.25 µM; with A498 renal, 2.18 µM; in the experiment on IGROV1 ovarian, 1.81 µM. Also, the values for the GI50 in the experiment with MDA-MB-435 and with RPMI-8226 leukemia were 2.16 µM and 0.27 µM, respectively. Besides, the TGI is 4.39 µM in the experiment with SK-MEL-2 melanoma; 5.73 µM in the experiment on NCI-H460 lung; 4.8 µM in the experiment on HOP-92 NSCLC; 5.86 µM with HT29 colon; 5.14 µM in the experiment with A498 renal; 3.94 µM in the experiment with IGROV1 ovarian. The figures for the TGI with MDA-MB-435 and in the experiment on RPMI-8226 leukemia were 6.91 µM and 1.32 µM, respectively.
As to `O=C(c1cccs1)c1c(C(F)(F)F)n([O-])c2cc(F)c(F)cc2[n+]1=O`, the GI50 was 5.44 µM in the experiment with SK-MEL-2 melanoma; 2.03 µM with NCI-H460 lung; 1.46 µM in the experiment with HOP-92 NSCLC; 9.5 µM with HT29 colon; 1.46 µM in the experiment on A498 renal; 1.86 µM in the experiment with IGROV1 ovarian. Also, the figures for the GI50 in the experiment on MDA-MB-435 and in the experiment on RPMI-8226 leukemia were 2.62 µM and 0.501 µM, respectively. Besides, the TGI in the experiment on SK-MEL-2 melanoma amounted to 8.63 µM; with NCI-H460 lung, 12.5 µM; in the experiment on HOP-92 NSCLC, 4.24 µM; with HT29 colon, 50 µM; in the experiment with A498 renal it was 3.79 µM; with IGROV1 ovarian, 3.92 µM. For the same molecule, the TGI with MDA-MB-435 worked out at 5.28 µM; in the experiment with RPMI-8226 leukemia it was 3.51 µM.
